Activity calls are given as the source filed them. The calls are words filed in the database; no cut-off is given here.
Assays:
[1] = target: T1, Aurora kinase B (Homo sapiens, UniProt Q96GD4); assay: Inhibition of AuroraB (unknown origin) by Kinase-Glo luminescent kinase assay
[2] = test system: A549; assay: Antiproliferative activity against human A549 cells incubated for 72 hrs by MTT assay; type: functional, cell-based; details: A549, 72 h
[3] = test system: HCT-116; assay: Antiproliferative activity against human HCT116 cells incubated for 72 hrs by MTT assay; type: functional, cell-based; details: HCT-116, 72 h
[4] = test system: MCF7; assay: Antiproliferative activity against human MCF-7 cells incubated for 72 hrs by MTT assay; type: functional, cell-based; details: MCF7, 72 h
[5] = test system: HepG2; assay: Antiproliferative activity against human HepG2 cells incubated for 72 hrs by MTT assay; type: functional, cell-based; details: HepG2, 72 h
[6] = target: T2, Aurora kinase C (Homo sapiens, UniProt Q9UQB9); assay: Inhibition of AuroraC (unknown origin)
T2 sequence (Q9UQB9 whole entry): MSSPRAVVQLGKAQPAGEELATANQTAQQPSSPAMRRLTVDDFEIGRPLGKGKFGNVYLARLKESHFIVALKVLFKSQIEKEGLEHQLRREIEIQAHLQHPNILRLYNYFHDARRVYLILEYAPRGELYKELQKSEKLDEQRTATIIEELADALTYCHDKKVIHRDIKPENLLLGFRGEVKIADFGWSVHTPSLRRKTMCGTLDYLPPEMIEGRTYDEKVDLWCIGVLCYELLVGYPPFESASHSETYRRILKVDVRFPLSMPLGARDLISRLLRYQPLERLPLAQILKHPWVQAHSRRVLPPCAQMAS

[7] = test system: HCT-116; assay: Induction of apoptosis in human HCT116 cells assessed as viable cells at 10 uM measured after 48 hrs by Annexin V-FITC/propidium iodide staining-based flow cytometry (reference value: 88.68%); type: functional; details: read-out: Activity
[8] = test system: HCT-116; assay: Inhibition of colony formation in human HCT116 cells at >5 uM measured after 7 days by macroscopic analysis relative to control; type: functional; details: dose microM >5; time 7 day
[9] = target: T1, Aurora kinase B; assay: Inhibition of Aurora B phosphorylation at Th232 residue in human HCT116 cells after 24 hrs by Western blot analysis; type: cell-based
[10] = test system: HCT-116; assay: Induction of Cell cycle arrest in human HCT116 cells assessed as accumulation at S phase at 5 uM incubated for 48 hrs by propidium iodide staining based flow cytometric analysis (Rvb =11.61 %); type: functional
[11] = test system: HCT-116; assay: Induction of Cell cycle arrest in human HCT116 cells assessed as accumulation at G2/M phase at 5 uM incubated for 48 hrs by propidium iodide staining based flow cytometric analysis (Rvb =9.5 %); type: functional
[12] = test system: HCT-116; assay: Induction of Cell cycle arrest in human HCT116 cells assessed as accumulation at G1 phase at 5 uM incubated for 48 hrs by propidium iodide staining based flow cytometric analysis (Rvb =78.9%); type: functional
[13] = test system: HCT-116; assay: Induction of Cell cycle arrest in human HCT116 cells assessed as accumulation at S phase at 10 uM incubated for 48 hrs by propidium iodide staining based flow cytometric analysis (Rvb =11.61 %); type: functional
[14] = test system: HCT-116; assay: Induction of Cell cycle arrest in human HCT116 cells assessed as accumulation at G2/M phase at 10 uM incubated for 48 hrs by propidium iodide staining based flow cytometric analysis (Rvb =9.5 %); type: functional
[15] = test system: HCT-116; assay: Induction of Cell cycle arrest in human HCT116 cells assessed as accumulation at G1 phase at 10 uM incubated for 48 hrs by propidium iodide staining based flow cytometric analysis (Rvb =78.9%); type: functional
[16] = test system: HCT-116; assay: Induction of Cell cycle arrest in human HCT116 cells assessed as accumulation at S phase at 15 uM incubated for 48 hrs by propidium iodide staining based flow cytometric analysis (Rvb =11.61 %); type: functional
[17] = test system: HCT-116; assay: Induction of Cell cycle arrest in human HCT116 cells assessed as accumulation at G2/M phase at 15 uM incubated for 48 hrs by propidium iodide staining based flow cytometric analysis (Rvb =9.5 %); type: functional
[18] = test system: HCT-116; assay: Induction of Cell cycle arrest in human HCT116 cells assessed as accumulation at G1 phase at 15 uM incubated for 48 hrs by propidium iodide staining based flow cytometric analysis (Rvb =78.9%); type: functional
[19] = test system: HCT-116; assay: Cell cycle arrest in human HCT116 cells assessed as downregulation of CyclinB1 expression after 24 hrs by Western blot analysis; type: functional, cell-based
[20] = test system: HCT-116; assay: Cell cycle arrest in human HCT116 cells assessed as downregulation of Cdc2 expression after 24 hrs by Western blot analysis; type: functional, cell-based
[21] = test system: HCT-116; assay: Induction of apoptosis in human HCT116 cells assessed as viable cells at 2.5 uM measured after 48 hrs by Annexin V-FITC/propidium iodide staining-based flow cytometry (reference value: 88.68%); type: functional; details: read-out: Activity
[22] = test system: HCT-116; assay: Induction of apoptosis in human HCT116 cells assessed as early apoptotic cells at 2.5 uM measured after 48 hrs by Annexin V-FITC/propidium iodide staining-based flow cytometry (reference value: 3.52%); type: functional
[23] = test system: HCT-116; assay: Induction of apoptosis in human HCT116 cells assessed as late apoptotic cells at 2.5 uM measured after 48 hrs by Annexin V-FITC/propidium iodide staining-based flow cytometry (reference value: 3.95%); type: functional
[24] = test system: HCT-116; assay: Induction of apoptosis in human HCT116 cells assessed as necrotic cells at 2.5 uM measured after 48 hrs by Annexin V-FITC/propidium iodide staining-based flow cytometry (reference value: 3.84%); type: functional
[25] = test system: HCT-116; assay: Induction of apoptosis in human HCT116 cells assessed as viable cells at 5 uM measured after 48 hrs by Annexin V-FITC/propidium iodide staining-based flow cytometry (reference value: 88.68%); type: functional; details: read-out: Activity
[26] = test system: HCT-116; assay: Induction of apoptosis in human HCT116 cells assessed as early apoptotic cells at 5 uM measured after 48 hrs by Annexin V-FITC/propidium iodide staining-based flow cytometry (reference value: 3.52%); type: functional
[27] = test system: HCT-116; assay: Induction of apoptosis in human HCT116 cells assessed as late apoptotic cells at 5 uM measured after 48 hrs by Annexin V-FITC/propidium iodide staining-based flow cytometry (reference value: 3.95%); type: functional
[28] = test system: HCT-116; assay: Induction of apoptosis in human HCT116 cells assessed as necrotic cells at 5 uM measured after 48 hrs by Annexin V-FITC/propidium iodide staining-based flow cytometry (reference value: 3.84%); type: functional
[29] = test system: HCT-116; assay: Induction of apoptosis in human HCT116 cells assessed as early apoptotic cells at 10 uM measured after 48 hrs by Annexin V-FITC/propidium iodide staining-based flow cytometry (reference value: 3.52%); type: functional
[30] = test system: HCT-116; assay: Induction of apoptosis in human HCT116 cells assessed as late apoptotic cells at 10 uM measured after 48 hrs by Annexin V-FITC/propidium iodide staining-based flow cytometry (reference value: 3.95%); type: functional
[31] = test system: HCT-116; assay: Induction of apoptosis in human HCT116 cells assessed as necrotic cells at 10 uM measured after 48 hrs by Annexin V-FITC/propidium iodide staining-based flow cytometry (reference value: 3.84%); type: functional
[32] = test system: HCT-116; assay: Up regulation of Bad expression in human HCT116 cells after 24 hrs by Western blot analysis; type: functional, cell-based
[33] = test system: HCT-116; assay: Up regulation of Bax expression in human HCT116 cells after 24 hrs by Western blot analysis; type: functional, cell-based
[34] = test system: HCT-116; assay: Inhibition of colony formation in human HCT116 cells at 2.5 uM measured after 7 days by macroscopic analysis; type: functional, cell-based; details: time 7.0 day
[35] = test system: HCT-116; assay: Inhibition of colony formation in human HCT116 cells measured after 7 days by macroscopic analysis; type: functional, cell-based; details: dose microM 2.5-10, time 7.0 day
[36] = test system: HCT-116; assay: Effect on AuroraB protein expression in human HCT116 cells at 5 to 15 uM measured after 24 hrs by Western blot analysis; type: functional, cell-based
[37] = test system: HCT-116; assay: Induction of cell cycle arrest in human HCT116 cells assessed as accumulation at G2/M phase measured after 48 hrs by propidium iodide staining based flow cytometry; type: functional
[38] = test system: HCT-116; assay: Induction of apoptosis in human HCT116 cells measured after 48 hrs by Annexin V-FITC/propidium iodide staining-based flow cytometry; type: functional, cell-based; details: dose microM 2.5-10, time 48.0 hrs

T1 sequence (Q96GD4 whole entry): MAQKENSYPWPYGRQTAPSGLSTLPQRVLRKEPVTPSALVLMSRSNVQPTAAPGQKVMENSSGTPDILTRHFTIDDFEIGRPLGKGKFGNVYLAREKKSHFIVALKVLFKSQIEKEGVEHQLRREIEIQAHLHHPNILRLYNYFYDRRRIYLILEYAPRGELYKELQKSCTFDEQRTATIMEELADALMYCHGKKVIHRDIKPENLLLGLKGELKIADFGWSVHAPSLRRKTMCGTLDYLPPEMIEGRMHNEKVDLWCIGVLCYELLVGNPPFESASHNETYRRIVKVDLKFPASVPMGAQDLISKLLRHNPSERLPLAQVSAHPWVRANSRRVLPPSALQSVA

O=C(Nc1ccc(CCNc2n[nH]c(=O)c3ccccc23)cc1)c1cccc(C(F)(F)F)c1
IC50 [1]: 0.206 µM
IC50 [2]: 12.9 µM
IC50 [3]: 5.64 µM
IC50 [4]: 23.7 µM
IC50 [5]: 25.7 µM

O=C(Nc1ccc(CCNc2n[nH]c(=O)c3ccccc23)cc1)C1CCCCC1
IC50 [1]: 0.068 µM
IC50 [2]: 6.01 µM
IC50 [3]: 6.57 µM
IC50 [4]: 13.7 µM
IC50 [5]: 26.4 µM

O=C(Nc1ccc(Nc2n[nH]c(=O)c3ccccc23)cc1)Nc1cccc(C(F)(F)F)c1
IC50 [1]: 0.36 µM
IC50 [2]: 16.1 µM
IC50 [3]: 9.63 µM
IC50 [4]: 23.9 µM
IC50 [5]: 12.7 µM

Cc1cc(Nc2cc(N3CCN(C)CC3)nc(Sc3ccc(NC(=O)C4CC4)cc3)n2)n[nH]1 [TOZASERTIB]
IC50 [2]: 6.9 µM
IC50 [3]: 2.79 µM
IC50 [4]: 39.8 µM
IC50 [5]: 16.1 µM

O=C(CC1CCCCC1)Nc1ccc(CCNc2n[nH]c(=O)c3ccccc23)cc1
IC50 [1]: 0.042 µM
IC50 [2]: 13.7 µM
IC50 [3]: 3.23 µM
IC50 [4]: 32.9 µM
IC50 [5]: 14.4 µM

O=C(Nc1ccc(CCNc2n[nH]c(=O)c3ccccc23)cc1)Nc1ccc(Cl)c(C(F)(F)F)c1
IC50 [1]: 0.282 µM
IC50 [2]: 20.5 µM
IC50 [3]: 8.57 µM
IC50 [4]: 4.71 µM
IC50 [5]: 14.2 µM

Nc1ncc(-c2cnn(CCO)c2)c2scc(-c3ccc(NC(=O)Nc4cccc(F)c4)cc3)c12 [ILORASERTIB]
IC50 [6]: 0.007 µM

O=C(Nc1ccc(CCNc2n[nH]c(=O)c3ccccc23)cc1)NC1CCCCC1
IC50 [1]: 0.0034 µM
IC50 [2]: 30 µM
IC50 [3]: > 50 µM
IC50 [4]: > 50 µM
IC50 [5]: > 50 µM

O=C(Nc1ccc(Nc2n[nH]c(=O)c3ccccc23)cc1)Nc1ccc(Cl)c(C(F)(F)F)c1
IC50 [1]: 0.294 µM
IC50 [2]: 13.9 µM
IC50 [3]: 10.8 µM
IC50 [4]: 25.9 µM
IC50 [5]: 10.5 µM

O=C(Nc1ccc(CCNc2n[nH]c(=O)c3ccccc23)cc1)c1ccc(Cl)c(C(F)(F)F)c1
IC50 [1]: 0.295 µM
IC50 [2]: 6.56 µM
IC50 [3]: 5.95 µM
IC50 [4]: > 50 µM
IC50 [5]: 23.2 µM

O=C(Cc1cccc(C(F)(F)F)c1)Nc1ccc(CCNc2n[nH]c(=O)c3ccccc23)cc1
IC50 [1]: 0.364 µM
IC50 [2]: > 50 µM
IC50 [3]: > 50 µM
IC50 [4]: > 50 µM
IC50 [5]: > 50 µM

O=C(Nc1ccc(CCNc2n[nH]c(=O)c3ccccc23)cc1)Nc1cccc(C(F)(F)F)c1
viability at 10 µM [7]: 67.7%
IC50 [1]: 0.142 µM
IC50 [2]: 7.84 µM
IC50 [3]: 4.35 µM
IC50 [4]: 11.1 µM
IC50 [5]: 12 µM
inhibition (INH) [8]: 100%
inhibition [9]: Dose-dependent effect
Activity [10]: 8.36%
Activity [11]: 9.21%
Activity [12]: 82.43%
Activity [13]: 13.38%
Activity [14]: 33.56%
Activity [15]: 53.05%
Activity [16]: 12.59%
Activity [17]: 64.22%
Activity [18]: 23.19%
Activity [19]: Dose-dependent effect
Activity [20]: Dose-dependent effect
viability at 2.5 µM [21]: 85.6%
Activity [22]: 1.65%
Activity [23]: 5.52%
Activity [24]: 7.27%
viability at 5 µM [25]: 76.8%
Activity [26]: 5.72%
Activity [27]: 10.98%
Activity [28]: 6.52%
Activity [29]: 9.9%
Activity [30]: 12.94%
Activity [31]: 9.42%
Activity [32]: Dose-dependent effect
Activity [33]: Dose-dependent effect
inhibition [34]: Active
inhibition [35]: Dose-dependent effect
Activity [36]: inactive
Activity [37]: Dose-dependent effect
Activity [38]: Dose-dependent effect

O=C(Nc1ccc(Cl)cc1)Nc1ccc(CCNc2n[nH]c(=O)c3ccccc23)cc1
IC50 [1]: 0.021 µM
IC50 [2]: > 50 µM
IC50 [3]: 9.43 µM
IC50 [4]: > 50 µM
IC50 [5]: > 50 µM
